Results reported in patent publication US20260097133A1, “EPIGENETIC EDITING TOOL FOR TARGETING HEPATITIS B VIRUS GENE” (priority 2023, published 2026).

Experiments:
Assay type in all cases: cell-based
Details in all cases: sgRNA in GFP-negative cell population, day 14 after transfection of EPIREG
[1] = test system: type D HBV surface antigen (HBsAg) reporter cell line; assay: sgRNA lentiviral library screening, HBsAg reporter cell line (NGS reads in GFP-negative cells)
Source text: (§1) In this example, the type D HBV X protein (HBx), core antigen (HBcAg), and surface antigen (HBsAg) reporter cell lines were used for library screening. First, a sgRNA cell library of type D HBV gene was constructed using a reporter cell line according to the method described in example 1. The sgRNA library was packaged into lentivirus to obtain a sgRNA lentiviral library (carrying red fluorescence), the reporter cell line was infected with the lentiviral library, and the red fluorescence was sorted to obtain the sgRNA cell library. Each cell in this sorted cell library integrated a single sgRNA in the library while the cell itself carried a reporter sequence (carrying green fluorescence). The EPIREG tool described in example 2 (the amino acid sequence of the tool was SEQ ID NO: 1194) (carrying blue fluorescence) was transfected and delivered into a cell library carrying both sgRNA and reporter sequences. Red/green/blue fluorescent triple-positive cells were sorted using a flow cytometer and cultured long-term. The EPIREG transfected into the cells could work together with the sgRNA to silence GFP in the reporter. On the day 14 after transfection, the GFP-negative cell population in the cell library was sorted, the genomic DNA of the negative cell population was extracted for NGS sequencing. The sgRNAs with higher sequencing reads in the negative cell population were compared using the untreated cell library as a control reference, so as to obtain the candidate sgRNAs that could play an editing role corresponding to each reporter, respectively (the schematic diagram of this screening scheme is shown in FIG. 6, and the analysis method is referenced to the literature DOI: 10.1186/s13059-014-0554-4). The functionally validated sgRNAs for each reporter cell line are summarized in the following table (arranged by the starting position of the target sequence of each sgRNA).

[2] = test system: type D HBV core antigen (HBcAg) reporter cell line; assay: sgRNA lentiviral library screening, HBcAg reporter cell line (NGS reads in GFP-negative cells)
Source text: as §1

[3] = test system: type D HBV X protein (HBx) reporter cell line; assay: sgRNA lentiviral library screening, HBx reporter cell line (NGS reads in GFP-negative cells)
Source text: as §1

## 242 (guide ATCCTGCGGACGACCCTTCT; listed as DNA, chemistry not fully specified) [compound 242]
[1]
  Log2 FC: 0.8809

## 215 (guide AGTCTTTGAAGTATGCCTCA; listed as DNA, chemistry not fully specified) [compound 215]
[2]
  Log2 FC: 2.1589
[1]
  Log2 FC: 1.3799

## 1008 (guide TGACGCAACCCCCACTGGCT; listed as DNA, chemistry not fully specified) [compound 1008]
[2]
  Log2 FC: 1.8835
[3]
  Log2 FC: 4.9717

## 1072 (guide TGTAGTATGCCCTGAGCCTG; listed as DNA, chemistry not fully specified) [compound 1072]
[1]
  Log2 FC: 1.1325

## 553 (guide CTGGCCGTTGCCGGGCAACG; listed as DNA, chemistry not fully specified) [compound 553]
[2]
  Log2 FC: 2.4462
[3]
  Log2 FC: 3.9905

## 227 (guide ATAGAGTATTTGGTGTCTTT; listed as DNA, chemistry not fully specified) [compound 227]
[1]
  Log2 FC: 0.9275

## 150 (guide AGAGAGGTGCGCCCCGTGGT; listed as DNA, chemistry not fully specified) [compound 150]
[3]
  Log2 FC: 3.8671
[1]
  Log2 FC: 1.453

## 496 (guide CGGCTAGGAGTTCCGCAGTA; listed as DNA, chemistry not fully specified) [compound 496]
[2]
  Log2 FC: 2.9031
[3]
  Log2 FC: 7.3529

## 598 (guide GACATGAACAAGAGATGATT; listed as DNA, chemistry not fully specified) [compound 598]
[2]
  Log2 FC: 4.6761
[1]
  Log2 FC: 1.4722

## 1025 (guide TGCCCAAGGTCTTACATAAG; listed as DNA, chemistry not fully specified) [compound 1025]
[2]
  Log2 FC: 2.0852
[1]
  Log2 FC: 1.4524

## 593 (guide GAATCCCAGAGGATTGCTGG; listed as DNA, chemistry not fully specified) [compound 593]
[1]
  Log2 FC: 0.9124

## 591 (guide GAAGCGAAGTGCACACGGTC; listed as DNA, chemistry not fully specified) [compound 591]
[2]
  Log2 FC: 4.4134
[3]
  Log2 FC: 5.7107

## 62 (guide AATGTCAACGACCGACCTTG; listed as DNA, chemistry not fully specified) [compound 62]
[2]
  Log2 FC: 2.2035
[1]
  Log2 FC: 1.5364

## 121 (guide ACTACTGTTGTTAGACGACG; listed as DNA, chemistry not fully specified) [compound 121]
[1]
  Log2 FC: 1.0553

## 145 (guide AGACTGGGAGGAGTTGGGGG; listed as DNA, chemistry not fully specified) [compound 145]
[2]
  Log2 FC: 3.5473
[1]
  Log2 FC: 1.8314

## 197 (guide AGGTCTGGAGCAAACATTAT; chemistry not given here) [compound 197]
[3]
  Log2 FC: 3.6817

## 539 (guide CTGACGCAACCCCCACTGGC; listed as DNA, chemistry not fully specified) [compound 539]
[3]
  Log2 FC: 3.1536

## 1132 (guide TTTACCCCGTTGCCCGGCAA; listed as DNA, chemistry not fully specified) [compound 1132]
[2]
  Log2 FC: 2.1043
[3]
  Log2 FC: 4.252

## 305 (guide CACAGAAAGGCCTTGTAAGT; listed as DNA, chemistry not fully specified) [compound 305]
[2]
  Log2 FC: 2.1583
[3]
  Log2 FC: 4.9316

## 1033 (guide TGCGAGCAAAACAAGCGGCT; listed as DNA, chemistry not fully specified) [compound 1033]
[3]
  Log2 FC: 3.1795

## 410 (guide CCCGTTGCCCGGCAACGGCC; listed as DNA, chemistry not fully specified) [compound 410]
[1]
  Log2 FC: 1.9735

## 161 (guide AGATTAAAGGTCTTTGTACT; listed as DNA, chemistry not fully specified) [compound 161]
[2]
  Log2 FC: 2.5156
[1]
  Log2 FC: 1.8238

## 774 (guide GGGGCGCACCTCTCTTTACG; listed as DNA, chemistry not fully specified) [compound 774]
[3]
  Log2 FC: 3.0494
[1]
  Log2 FC: 1.1527

## 357 (guide CATGACCAAGCCCCAGCCAG; listed as DNA, chemistry not fully specified) [compound 357]
[2]
  Log2 FC: 3.1523
[3]
  Log2 FC: 6.2753

## 112 (guide ACCTTTGGATAAAACCTAGC; listed as DNA, chemistry not fully specified) [compound 112]
[1]
  Log2 FC: 1.203

## 484 (guide CGCCGACGGGACGTAAACAA; listed as DNA, chemistry not fully specified) [compound 484]
[3]
  Log2 FC: 3.3079

## 671 (guide GCAGCACAGCCTAGCAGCCA; listed as DNA, chemistry not fully specified) [compound 671]
[1]
  Log2 FC: 1.2918

## 612 (guide GACGCAACCCCCACTGGCTG; listed as DNA, chemistry not fully specified) [compound 612]
[2]
  Log2 FC: 2.8035
[3]
  Log2 FC: 6.7125

## 204 (guide AGGTTCCACGCACGCGCTGA; listed as DNA, chemistry not fully specified) [compound 204]
[3]
  Log2 FC: 3.0712

## 200 (guide AGGTGCGCCCCGTGGTCGGT; listed as DNA, chemistry not fully specified) [compound 200]
[3]
  Log2 FC: 7.535

## 958 (guide TCCTGCGGACGACCCTTCTC; listed as DNA, chemistry not fully specified) [compound 958]
[2]
  Log2 FC: 3.1878
[3]
  Log2 FC: 3.9999

## 451 (guide CCTGCTGCGAGCAAAACAAG; listed as DNA, chemistry not fully specified) [compound 451]
[2]
  Log2 FC: 2.9406
[3]
  Log2 FC: 5.3958

## 998 (guide TCTTTGTACTAGGAGGCTGT; listed as DNA, chemistry not fully specified) [compound 998]
[2]
  Log2 FC: 4.2906
[1]
  Log2 FC: 2.1989

## 829 (guide GTCCTCTTATGTAAGACCTT; listed as DNA, chemistry not fully specified) [compound 829]
[1]
  Log2 FC: 0.9029

## 254 (guide ATGGATACGATGTATATTTG; listed as DNA, chemistry not fully specified) [compound 254]
[3]
  Log2 FC: 3.4564

## 270 (guide ATTTGCTGTGTTTGCTCTGA; listed as DNA, chemistry not fully specified) [compound 270]
[1]
  Log2 FC: 1.397

## 1065 (guide TGGTCGGTCGGAACGGCAGA; listed as DNA, chemistry not fully specified) [compound 1065]
[2]
  Log2 FC: 2.8985
[3]
  Log2 FC: 6.0793

## 327 (guide CACTGGCTGGGGCTTGGTCA; listed as DNA, chemistry not fully specified) [compound 327]
[2]
  Log2 FC: 1.8664
[3]
  Log2 FC: 5.8386

## 1006 (guide TGACCAAGCCCCAGCCAGTG; listed as DNA, chemistry not fully specified) [compound 1006]
[2]
  Log2 FC: 4.2194
[3]
  Log2 FC: 7.0191

## 1028 (guide TGCCGTTCCGACCGACCACG; listed as DNA, chemistry not fully specified) [compound 1028]
[2]
  Log2 FC: 3.8548
[1]
  Log2 FC: 0.8922

## 1084 (guide TTAAAGGTCTTTGTACTAGG; listed as DNA, chemistry not fully specified) [compound 1084]
[1]
  Log2 FC: 1.0831

## 657 (guide GCAAACACTTGGCACAGACC; listed as DNA, chemistry not fully specified) [compound 657]
[2]
  Log2 FC: 1.9192
[3]
  Log2 FC: 3.2226

## 839 (guide GTCTTACATAAGAGGACTCT; listed as DNA, chemistry not fully specified) [compound 839]
[1]
  Log2 FC: 1.3376

## 498 (guide CGGGGAGTCCGCGTAAAGAG; listed as DNA, chemistry not fully specified) [compound 498]
[3]
  Log2 FC: 2.939

## 249 (guide ATGACCAAGCCCCAGCCAGT; listed as DNA, chemistry not fully specified) [compound 249]
[2]
  Log2 FC: 2.8648
[3]
  Log2 FC: 5.9752

## 27 (guide AACAAGAGATGATTAGGCAG; listed as DNA, chemistry not fully specified) [compound 27]
[1]
  Log2 FC: 1.3821

## 668 (guide GCAGAGGTGAAAAAGTTGCA; listed as DNA, chemistry not fully specified) [compound 668]
[2]
  Log2 FC: 1.9744
[1]
  Log2 FC: 1.297
